From PubChem BioAssay AID2060889 (Molecular Pharmacology Branch, DTP, NCI, 2025)

System: LG0567-F671-PDC complex spheroids viability
Assay: Anticancer human tumor LG0567-F671-PDC patient-derived lung adenocarcinoma cell line growth inhibition [RAS]
Settings: for IC50: curve of first compound; for viability, T/C: stronger effect = lower value
In short: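 Agents were tested in combination matrices in half-log decrements from a top concentration at or near clinical Cmax (10 microM if undetermined). Targets were multi-cell spheroids of tumour lines plus HUVEC and MSC stromal cells.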
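Note: spheroids exposed to compound for seven days before readout.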
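Throughout, for IC50: luminescence signal used as a proxy for viable cells.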

In the case of `CCc1c2c(nc3ccc(O)cc13)-c1cc3c(c(=O)n1C2)COC(=O)[C@]3(O)CC` + CCn1c(-c2cccnc2C(C)OC)c2c3cc(ccc31)N1CCOC(CC(NC(=O)C(C(C)C)N(C)C(=O)C3(F)CCN(C(=O)C#CC(C)(C)N(C)C)CC3)C(=O)N3CCCC(N3)C(=O)OCC(C)(C)C2)C1, the IC50 (second compound 0.000949 µM) is reported as < 0.949 nM, the IC50 (second compound 0.003 µM) is reported as < 0.949 nM and the IC50 (second compound 0.00949 µM) is reported as < 0.949 nM. For the same molecule, the IC50 (second compound 0.03 µM) was < 0.949 nM, the IC50 (second compound 0.0949 µM) was < 0.949 nM and the IC50 (second compound 0.3 µM) was < 0.949 nM. The viability, T/C (second compound 0.000949 µM, first compound 0.000949 µM) was 13.8%, the viability, T/C (second compound 0.000949 µM, first compound 0.003 µM) was 13.3% and the viability, T/C (second compound 0.000949 µM, first compound 0.00949 µM) was 11.2%. For the same molecule, the viability, T/C (second compound 0.000949 µM, first compound 0.03 µM) was 9.37%, the viability, T/C (second compound 0.000949 µM, first compound 0.0949 µM) was 6.34% and the viability, T/C (second compound 0.000949 µM, first compound 0.3 µM) was 3.92%. It also gave a viability, T/C (second compound 0.003 µM, first compound 0.000949 µM) of 15.5%, a viability, T/C (second compound 0.003 µM, first compound 0.003 µM) of 13.3% and a viability, T/C (second compound 0.003 µM, first compound 0.00949 µM) of 11.8%. For the same molecule, the viability, T/C (second compound 0.003 µM, first compound 0.03 µM) was 9.3%, the viability, T/C (second compound 0.003 µM, first compound 0.0949 µM) was 6.04% and the viability, T/C (second compound 0.003 µM, first compound 0.3 µM) was 3.42%. It also gave a viability, T/C (second compound 0.00949 µM, first compound 0.000949 µM) of 13.6%, a viability, T/C (second compound 0.00949 µM, first compound 0.003 µM) of 14.2% and a viability, T/C (second compound 0.00949 µM, first compound 0.00949 µM) of 11.6%. It also gave a viability, T/C (second compound 0.00949 µM, first compound 0.03 µM) of 9.12%, a viability, T/C (second compound 0.00949 µM, first compound 0.0949 µM) of 6.47% and a viability, T/C (second compound 0.00949 µM, first compound 0.3 µM) of 3.47%. The viability, T/C (second compound 0.03 µM, first compound 0.000949 µM) was 12.1%, the viability, T/C (second compound 0.03 µM, first compound 0.003 µM) was 11.9% and the viability, T/C (second compound 0.03 µM, first compound 0.00949 µM) was 11.2%. For the same molecule, the viability, T/C (second compound 0.03 µM, first compound 0.03 µM) was 7.2%, the viability, T/C (second compound 0.03 µM, first compound 0.0949 µM) was 4.9% and the viability, T/C (second compound 0.03 µM, first compound 0.3 µM) was 2.69%. The viability, T/C (second compound 0.0949 µM, first compound 0.000949 µM) was 12.8%, the viability, T/C (second compound 0.0949 µM, first compound 0.003 µM) was 9.98% and the viability, T/C (second compound 0.0949 µM, first compound 0.00949 µM) was 10.1%. For the same molecule, the viability, T/C (second compound 0.0949 µM, first compound 0.03 µM) was 6.64%, the viability, T/C (second compound 0.0949 µM, first compound 0.0949 µM) was 4.22% and the viability, T/C (second compound 0.0949 µM, first compound 0.3 µM) was 2.51%. For the same molecule, the viability, T/C (second compound 0.3 µM, first compound 0.000949 µM) was 10.2%, the viability, T/C (second compound 0.3 µM, first compound 0.003 µM) was 8.84% and the viability, T/C (second compound 0.3 µM, first compound 0.00949 µM) was 7.66%. The viability, T/C (second compound 0.3 µM, first compound 0.03 µM) was 5.32%, the viability, T/C (second compound 0.3 µM, first compound 0.0949 µM) was 3.16% and the viability, T/C (second compound 0.3 µM, first compound 0.3 µM) was 2.05%.

In the case of `CC1(C)CCC(Nc2ncc(C(F)(F)F)c(-c3c[nH]c4c(P(C)(C)=O)c(C#N)ccc34)n2)CN1` (centres undefined), the viability, T/C (compound 0.003 µM) is reported as 61.7% [middle of 4 runs], the viability, T/C (compound 0.00949 µM) is reported as 58.9% [middle of 4 runs] and the viability, T/C (compound 0.03 µM) is reported as 58.4% [middle of 4 runs]. The viability, T/C (compound 0.0949 µM) was 60.6% [middle of 4 runs] and the viability, T/C (compound 0.3 µM) was 58% [middle of 4 runs].

`Cc1nc(N2CCC3(CC2)COC(C)C3N)c(CO)nc1Sc1ccnc(N)c1Cl` (centres undefined) + CCn1c(-c2cccnc2C(C)OC)c2c3cc(ccc31)N1CCOC(CC(NC(=O)C(C(C)C)N(C)C(=O)C3(F)CCN(C(=O)C#CC(C)(C)N(C)C)CC3)C(=O)N3CCCC(N3)C(=O)OCC(C)(C)C2)C1 was tested, and the IC50 (second compound 0.000949 µM) was < 31.6 nM, the IC50 (second compound 0.003 µM) was < 31.6 nM and the IC50 (second compound 0.00949 µM) was < 31.6 nM. The IC50 (second compound 0.03 µM) was < 31.6 nM, the IC50 (second compound 0.0949 µM) was < 31.6 nM and the IC50 (second compound 0.3 µM) was < 31.6 nM. For the same molecule, the viability, T/C (second compound 0.000949 µM, first compound 0.0316 µM) was 10.8%, the viability, T/C (second compound 0.000949 µM, first compound 0.1 µM) was 7.91% and the viability, T/C (second compound 0.000949 µM, first compound 0.316 µM) was 6.47%. For the same molecule, the viability, T/C (second compound 0.000949 µM, first compound 1 µM) was 4.21%, the viability, T/C (second compound 0.000949 µM, first compound 3.16 µM) was 2.97% and the viability, T/C (second compound 0.000949 µM, first compound 10 µM) was 3.86%. It also gave a viability, T/C (second compound 0.003 µM, first compound 0.0316 µM) of 12%, a viability, T/C (second compound 0.003 µM, first compound 0.1 µM) of 8.89% and a viability, T/C (second compound 0.003 µM, first compound 0.316 µM) of 6.21%. It also gave a viability, T/C (second compound 0.003 µM, first compound 1 µM) of 4.14%, a viability, T/C (second compound 0.003 µM, first compound 3.16 µM) of 3.41% and a viability, T/C (second compound 0.003 µM, first compound 10 µM) of 2.94%. The viability, T/C (second compound 0.00949 µM, first compound 0.0316 µM) was 10.7%, the viability, T/C (second compound 0.00949 µM, first compound 0.1 µM) was 8.42% and the viability, T/C (second compound 0.00949 µM, first compound 0.316 µM) was 5.46%. The viability, T/C (second compound 0.00949 µM, first compound 1 µM) was 3.45%, the viability, T/C (second compound 0.00949 µM, first compound 3.16 µM) was 2.86% and the viability, T/C (second compound 0.00949 µM, first compound 10 µM) was 3.85%. The viability, T/C (second compound 0.03 µM, first compound 0.0316 µM) was 10.3%, the viability, T/C (second compound 0.03 µM, first compound 0.1 µM) was 6.81% and the viability, T/C (second compound 0.03 µM, first compound 0.316 µM) was 6.16%. It also gave a viability, T/C (second compound 0.03 µM, first compound 1 µM) of 3.36%, a viability, T/C (second compound 0.03 µM, first compound 3.16 µM) of 2.76% and a viability, T/C (second compound 0.03 µM, first compound 10 µM) of 2.27%. For the same molecule, the viability, T/C (second compound 0.0949 µM, first compound 0.0316 µM) was 6.53%, the viability, T/C (second compound 0.0949 µM, first compound 0.1 µM) was 6.31% and the viability, T/C (second compound 0.0949 µM, first compound 0.316 µM) was 5%. It also gave a viability, T/C (second compound 0.0949 µM, first compound 1 µM) of 3.1%, a viability, T/C (second compound 0.0949 µM, first compound 3.16 µM) of 2.61% and a viability, T/C (second compound 0.0949 µM, first compound 10 µM) of 3.31%. It also gave a viability, T/C (second compound 0.3 µM, first compound 0.0316 µM) of 6.4%, a viability, T/C (second compound 0.3 µM, first compound 0.1 µM) of 4.69% and a viability, T/C (second compound 0.3 µM, first compound 0.316 µM) of 3.02%. It also gave a viability, T/C (second compound 0.3 µM, first compound 1 µM) of 3.78%, a viability, T/C (second compound 0.3 µM, first compound 3.16 µM) of 2.19% and a viability, T/C (second compound 0.3 µM, first compound 10 µM) of 3.11%.
